Experiment [1] addresses T1, Type-1 angiotensin II receptor (Oryctolagus cuniculus) (UniProt P34976).
T1 sequence (whole entry): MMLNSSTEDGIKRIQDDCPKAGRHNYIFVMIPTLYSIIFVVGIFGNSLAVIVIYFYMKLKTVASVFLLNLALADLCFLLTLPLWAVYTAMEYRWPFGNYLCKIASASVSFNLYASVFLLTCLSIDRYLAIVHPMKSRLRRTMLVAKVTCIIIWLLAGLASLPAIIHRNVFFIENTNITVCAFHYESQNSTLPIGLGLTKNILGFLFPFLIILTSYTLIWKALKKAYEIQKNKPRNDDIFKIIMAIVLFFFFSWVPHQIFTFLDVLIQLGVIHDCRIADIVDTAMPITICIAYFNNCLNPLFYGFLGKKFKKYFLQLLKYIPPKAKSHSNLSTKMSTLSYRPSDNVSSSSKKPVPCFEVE
Briefly: In vitro antagonistic activity against Ang II (AT1) receptor was determined in rabbit aorta. The experiment is classed as functional, tissue-based.

Experiment [2] concerns the target T2, Type-1 angiotensin II receptor B (Rattus norvegicus) (UniProt P29089).
T2 sequence (whole entry): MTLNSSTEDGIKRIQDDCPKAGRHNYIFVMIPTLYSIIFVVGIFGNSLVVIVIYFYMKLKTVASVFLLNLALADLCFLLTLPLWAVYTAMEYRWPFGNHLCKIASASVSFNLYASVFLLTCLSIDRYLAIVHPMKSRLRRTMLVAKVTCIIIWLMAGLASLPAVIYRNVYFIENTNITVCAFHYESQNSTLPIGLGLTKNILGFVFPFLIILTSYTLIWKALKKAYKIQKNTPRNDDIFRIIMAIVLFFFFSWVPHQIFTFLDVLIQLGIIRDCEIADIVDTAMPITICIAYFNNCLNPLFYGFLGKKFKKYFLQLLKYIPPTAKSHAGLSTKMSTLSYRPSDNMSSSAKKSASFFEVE
Kind of experiment: In vivo pressor response to Ang II (AT1) receptor in pithed rats at an oral dose of 10 mg/kg. Format: functional, organism-based. Further details: dose 10 mg/kg.

Experiment [3] addresses T2, Type-1 angiotensin II receptor B (Rattus norvegicus). Kind of experiment: In vivo pressor response to Ang II (AT1) receptor in pithed rats at an oral dose of 10 mg/kg; Not active. Format: functional, organism-based. Further details: dose 10 mg/kg.

Here are results for 40 compounds from ChEMBL document CHEMBL1127307, “Structural evolution and pharmacology of a novel series of triacid angiotensin II receptor antagonists” (J Med Chem, 1994).

SMILES strings stand for the structures. The source made the active and inactive calls. The rule behind the calls is not given here.

For `CCCCCC[C@H](C(=O)N1C[C@@H](Oc2ccc(C)cc2)C[C@H]1C(=O)O)n1cnc(NC(=O)c2ccccc2S(=O)(=O)O)c1`, in experiment [1], the Kb worked out at 1.09 nM. The compound `CCCCCC[C@H](C(=O)N1C[C@@H](Oc2ccc(OC(C)(C)C)cc2)C[C@H]1C(=O)O)n1cnc(NC(=O)c2ccccc2S(=O)(=O)O)c1` showed a Kb in experiment [1] of 5.2 nM. With `CCCCCC[C@H](C(=O)N1C[C@@H](Oc2cccc(CC(=O)O)c2)C[C@H]1C(=O)O)n1cnc(NC(=O)c2ccccc2S(=O)(=O)O)c1`, the values for the Kb in experiment [1] and in experiment [2] were 15.8 nM and 10.6 mg/kg, respectively. In turn, `CCCCCC[C@H](C(=O)N1C[C@@H](Oc2cccc3ccccc23)C[C@H]1C(=O)O)n1cnc(NC(=O)c2ccccc2S(=O)(=O)O)c1` registered a Kb in experiment [1] of 4040 nM.

`CCCCCCC(C(=O)O)n1cnc(NC(=O)c2ccccc2S(=O)(=O)O)c1` (centres undefined): the Kb in experiment [1] came to 81.7 nM. In the case of `CCCCCC[C@@H](C(=O)N1CCC[C@H]1C(=O)O)n1cnc(NC(=O)c2ccccc2S(=O)(=O)O)c1`, in experiment [1], the Kb came to 461 nM. `CCCCCC[C@H](C(=O)N1C[C@@H](Oc2cccc3cnccc23)C[C@H]1C(=O)O)n1cnc(NC(=O)c2ccccc2S(=O)(=O)O)c1` gave a Kb in experiment [1] of 3.3 nM.

With `CCCCCC[C@H](C(=O)N1C[C@@H](Oc2cccc(OC)c2)C[C@H]1C(=O)O)n1cnc(NC(=O)c2ccccc2S(=O)(=O)O)c1`, in experiment [1], the Kb is 11.6 nM. Same read-out and setting: to `CCCCCCC(C(=O)O)n1cnc(NC(=O)c2cccc(O)c2C(=O)O)c1` (centres undefined) belongs 124 nM; to `CCCCCC[C@H](C(=O)N1C[C@@H](Oc2ccc(-c3ccccc3)cc2)C[C@H]1C(=O)O)n1cnc(NC(=O)c2ccccc2S(=O)(=O)O)c1`, 10 nM. Compound `CCCCCC[C@H](C(=O)N1CCC[C@H]1C(=O)O)n1cnc(NC(=O)c2ccccc2S(=O)(=O)O)c1` had a Kb in experiment [1] of 50.9 nM.

Compound `CCCCCC[C@H](C(=O)N1C[C@@H](Oc2ccno2)C[C@H]1C(=O)O)n1cnc(NC(=O)c2ccccc2S(=O)(=O)O)c1` came in with a Kb in experiment [1] of 94.6 nM. Still for that read-out and setting: the figure for `CCCCCC[C@H](C(=O)N1C[C@@H](O)C[C@H]1C(=O)O)n1cnc(NC(=O)c2ccccc2S(=O)(=O)O)c1` is 25.8 nM; for `CCCCC(C(=O)O)n1cnc(C(=O)Nc2ccccc2)c1` (centres undefined) it is 71.5 nM; for `CCCCCC[C@H](C(=O)N1C[C@@H](Oc2cccnc2)C[C@H]1C(=O)O)n1cnc(NC(=O)c2ccccc2S(=O)(=O)O)c1` it is 148 nM. As for `CCCCCCC(C(=O)O)n1cnc(NC(=O)c2ccccc2C(=O)O)c1` (centres undefined), the Kb in experiment [1] turned out to be 684 nM.

Consider `CCCCCC[C@H](C(=O)N1C[C@@H](Oc2ccccc2CC(=O)O)C[C@H]1C(=O)O)n1cnc(NC(=O)c2ccccc2S(=O)(=O)O)c1`, for which the Kb in experiment [1] worked out at 501 nM. Besides, the Kb entry in experiment [3] is “inactive”. Consider `CCCCCC[C@H](C(=O)N1C[C@@H](Oc2ccc(C(C)C)cc2)C[C@H]1C(=O)O)n1cnc(NC(=O)c2ccccc2S(=O)(=O)O)c1`, for which the Kb in experiment [1] came to 25.1 nM. The same measure, in the same setting: to `CCCCCC[C@H](C(=O)N1C[C@@H](Oc2ccc(C(F)(F)F)cc2)C[C@H]1C(=O)O)n1cnc(NC(=O)c2ccccc2S(=O)(=O)O)c1` belongs 34.7 nM; to `CCCCCC[C@H](C(=O)N1C[C@@H](Oc2ccc(F)cc2)C[C@H]1C(=O)O)n1cnc(NC(=O)c2ccccc2S(=O)(=O)O)c1`, 3 nM; to `CCCCCC[C@H](C(=O)N1C[C@@H](Oc2ccc(OC)cc2)C[C@H]1C(=O)O)n1cnc(NC(=O)c2ccccc2S(=O)(=O)O)c1`, 0.44 nM. As to `CCCCCC[C@H](C(=O)N1C[C@@H](Oc2ccc(CC3N=NN=N3)cc2)C[C@H]1C(=O)O)n1cnc(NC(=O)c2ccccc2S(=O)(=O)O)c1`, in experiment [1], the Kb was 0.6 nM. Further, the Kb entry in experiment [3] was “inactive”. The corresponding values for `CCCCCC[C@H](C(=O)N1C[C@@H](Oc2ccc(C(=O)O)cc2)C[C@H]1C(=O)O)n1cnc(NC(=O)c2ccccc2S(=O)(=O)O)c1` are 1.1 nM and “inactive”. Compound `CCCCCC[C@H](C(=O)N1C[C@@H](Oc2ccc3sccc3c2)C[C@H]1C(=O)O)n1cnc(NC(=O)c2ccccc2S(=O)(=O)O)c1` displayed a Kb in experiment [1] of 3.6 nM.

Take `CCCCCC[C@H](C(=O)N1C[C@@H](Oc2ccc3ccccc3c2)C[C@H]1C(=O)O)n1cnc(NC(=O)c2ccccc2S(=O)(=O)O)c1`: the Kb in experiment [1] amounted to 4.1 nM.

Compound `CCCCCC[C@H](C(=O)N1C[C@@H](Oc2ccccc2OC)C[C@H]1C(=O)O)n1cnc(NC(=O)c2ccccc2S(=O)(=O)O)c1` returned a Kb in experiment [1] above 30 nM. Same read-out and setting: the figure for `CCCCCC[C@H](C(=O)N1C[C@@H](Oc2ccc(OC(C)C)cc2)C[C@H]1C(=O)O)n1cnc(NC(=O)c2ccccc2S(=O)(=O)O)c1` is 4.1 nM. Same read-out and setting: to `CCCCCC[C@H](C(=O)N1C[C@@H](Oc2ccc(C(C)(C)C)cc2)C[C@H]1C(=O)O)n1cnc(NC(=O)c2ccccc2S(=O)(=O)O)c1` belongs 126 nM. In experiment [1], `CCCCCC[C@H](C(=O)N1C[C@@H](Oc2ccc(CCC(=O)O)cc2)C[C@H]1C(=O)O)n1cnc(NC(=O)c2ccccc2S(=O)(=O)O)c1` returned a Kb of 0.6 nM. For the same compound, the Kb entry in experiment [3] was “inactive”.

Turning to `CCCCCC[C@H](C(=O)N1C[C@@H](Oc2ccc(OC)c(OC)c2)C[C@H]1C(=O)O)n1cnc(NC(=O)c2ccccc2S(=O)(=O)O)c1`, the Kb in experiment [1] was found to be 15.8 nM. For the compound `CCCCCC[C@H](C(=O)N1C[C@@H](Oc2ccc(CCP(=O)(O)O)cc2)C[C@H]1C(=O)O)n1cnc(NC(=O)c2ccccc2S(=O)(=O)O)c1`, the Kb in experiment [1] was 0.4 nM; in experiment [2], 8.3 mg/kg. In experiment [1], `CCCCCC[C@H](C(=O)N1C[C@@H](Oc2ccccc2)C[C@H]1C(=O)O)n1cnc(NC(=O)c2ccccc2S(=O)(=O)O)c1` had a Kb of 0.8 nM.

`CCCCCCC(C(=O)O)n1cnc(NC(=O)c2ccccc2)c1` (centres undefined) yielded a Kb in experiment [1] of 12500 nM. For `CCCCCC[C@H](C(=O)N1C[C@@H](Oc2ccc(CC(=O)O)cc2)C[C@H]1C(=O)O)n1cnc(NC(=O)c2ccccc2S(=O)(=O)O)c1`, the Kb in experiment [1] came to 0.27 nM; in experiment [2], 2.8 mg/kg. With `CCCCCC[C@@H](C(=O)N1C[C@@H](Oc2ccccc2)C[C@H]1C(=O)O)n1cnc(NC(=O)c2ccccc2S(=O)(=O)O)c1`, the Kb in experiment [1] was found to be 3.2 nM. Regarding `CCCCCC[C@H](C(=O)N1C[C@@H](Oc2ccc(CP(=O)(O)O)cc2)C[C@H]1C(=O)O)n1cnc(NC(=O)c2ccccc2S(=O)(=O)O)c1`, the Kb in experiment [1] stood at 0.9 nM; in experiment [2] it was 1.8 mg/kg. The compound `CCCCCC[C@H](C(=O)N1C[C@@H](Oc2ccc3occc3c2)C[C@H]1C(=O)O)n1cnc(NC(=O)c2ccccc2S(=O)(=O)O)c1` registered a Kb in experiment [1] of 0.63 nM.

In experiment [1], `CCCCCCC(C(=O)O)n1cnc(NC(=O)c2ccccc2-c2nn[nH]n2)c1` (centres undefined) came in with a Kb of 159 nM. On the same count and under the same terms, to `CCCCCC[C@H](C(=O)N1C[C@@H](Oc2ccc3c(c2)OCO3)C[C@H]1C(=O)O)n1cnc(NC(=O)c2ccccc2S(=O)(=O)O)c1` belongs 0.92 nM. As for `CCCCCC[C@H](C(=O)N1C[C@@H](Oc2ccc(C(C)(C)C(=O)O)cc2)C[C@H]1C(=O)O)n1cnc(NC(=O)c2ccccc2S(=O)(=O)O)c1`, the Kb turned out to be 0.6 nM in experiment [1] and 6.5 mg/kg in experiment [2].
